13 compounds from US20210059251A1, “PLANT GROWTH REGULATOR COMPOUNDS” (SYNGENTA PARTICIPATIONS AG, priority 2018, published 2021) can be followed below.

The test system of the assay is corn leaf. Briefly: Dark induced senescence of corn leaf (leaf discs). The format is cell-based, Corn (variety Multitop). Particulars: 23° C., 8 days, 0.5% DMSO, image analysis, lower value = higher senescence induction potency; for pIC50: Zea mays, foliar, 192 h, read-out: IC50 (concentration at which 50% senescence was achieved). The procedure: It is known that strigolactones regulate (accelerate) leaf senescence, potentially through D14 receptor signaling. Compounds of the present invention (I) were compared to structurally-related compounds (Z) in a corn leaf dark induced senescence assay. Corn plants of variety Multitop were grown in a greenhouse with relative 75% humidity and at 23-25° C. for 6 weeks. 1.4 cm diameter leaf discs were placed into 24-well plates containing a test compounds in a concentration gradient (100 μM-0.0001 μM) at a final concentration of 0.5% DMSO. Each concentration was tested in 12 replicates. Plates were sealed with seal foil. The foil was pierced to provide gas exchange in each well. The plates were placed into the completely dark climatic chamber. Plates were incubated in the chamber with 75% humidity and at 23° C. for 8 days. On days 0, 5, 6, 7 and 8 photographs were taken of each plate, and image analysis conducted with a macro developed using the ImageJ software. The image analysis was used to determine the concentration at which 50% senescence was achieved (IC50), see Table 7. The lower the value, the higher senescence induction potency.

Each structure is given as a SMILES string. pIC50: −log10 of the molar value.

With `CC(=O)N1C(=O)/C(=C/OC2C=C(C)C(=O)O2)C2c3ccccc3CC21` (stereo not shown) [Compound I-1, (1E)-3-acetyl-1-[(4-methyl-5-oxo-2H-furan-2-yl)oxymethylene]-4,8b-dihydro-3aH-indeno[2,1-b]pyrrol-2-one], the pIC50 was 7.19.
Same read-out and setting: the same measure for `CC(=O)N1C(=O)/C(=C/OC2OC(=O)C(C)=C2C)C2c3ccccc3CC21` (stereo not shown) [Compound I-5, (1E)-3-acetyl-1-[(3,4-dimethyl-5-oxo-2H-furan-2-yl)oxymethylene]-4,8b-dihydro-3aH-indeno[2,1-b]pyrrol-2-one]: 7.62; for `CC1=CC(O/C=C2/C(=O)N(c3nccs3)C3Cc4ccccc4C23)OC1=O` (stereo not shown) [Compound I-9, (1E)-1-[(4-methyl-5-oxo-2H-furan-2-yl)oxymethylene]-3-thiazol-2-yl-4,8b-dihydro-3aH-indeno[2,1-b]pyrrol-2-one]: 6.90.
Same read-out and setting: the result for `CC1=CC(O/C=C2/C(=O)N(c3ccccc3)C3Cc4ccccc4C23)OC1=O` (stereo not shown) [Compound I-10, (1E)-1-[(4-methyl-5-oxo-2H-furan-2-yl)oxymethylene]-3-phenyl-4,8b-dihydro-3aH-indeno[2,1-b]pyrrol-2-one] reads 6.97.
The same measure, in the same setting: the same measure for `CC1=CC(O/C=C2/C(=O)N(CC#N)C3Cc4ccccc4C23)OC1=O` (stereo not shown) [Compound I-12-E, 2-[(1E)-1-[(4-methyl-5-oxo-2H-furan-2-yl)oxymethylene]-2-oxo-4,8b-dihydro-3aH-indeno[2,1-b]pyrrol-3-yl]acetonitrile]: 5.81.
As for `CC1=C(C)C(O/C=C2/C(=O)N(c3nccs3)C3Cc4ccccc4C23)OC1=O` (stereo not shown) [Compound I-13, (1E)-1-[(3,4-dimethyl-5-oxo-2H-furan-2-yl)oxymethylene]-3-thiazol-2-yl-4,8b-dihydro-3aH-indeno[2,1-b]pyrrol-2-one], the pIC50 was 7.95.
Still for that read-out and setting: the same measure for `CC(=O)N1C(=O)/C(=C/OC2OC(=O)C(C)=C2C)C2c3ccccc3OC21` (stereo not shown) [Compound I-25]: 6.00; for `CC(=O)N1C(=O)/C(=C/OC2C=C(C)C(=O)O2)C2Cc3ccccc3C21` (stereo not shown) [Compound Z1, reference compound]: 6.96; for `CC(=O)N1C(=O)/C(=C/OC2OC(=O)C(C)=C2C)C2Cc3ccccc3C21` (stereo not shown) [Compound Z1-Me, reference compound]: 7.52.
On to `CC1=CC(O/C=C2/C(=O)N(c3nccs3)C3c4ccccc4CC23)OC1=O` (stereo not shown) [Compound Z2, reference compound], for which the “IC50 (concentration at which 50% senescence was achieved)” value was “inactive”.
Same read-out and setting: the same measure for `CC1=C(C)C(O/C=C2/C(=O)N(c3nccs3)C3c4ccccc4CC23)OC1=O` (stereo not shown) [Compound Z2-Me, reference compound]: “inactive”.
With `CC1=CC(O/C=C2/C(=O)N(c3ccccc3)C3c4ccccc4CC23)OC1=O` (stereo not shown) [Compound Z3, reference compound], the pIC50 was 5.61.
Still for that read-out and setting: the same measure for `CC1=CC(O/C=C2/C(=O)N(CC#N)C3c4ccccc4CC23)OC1=O` (stereo not shown) [Compound Z4-E, reference compound]: 5.43.
